Assay [1] addresses T1, rat PepT2 (Rattus norvegicus, UniProt Q63424).
T1 construct: His-tagged GFP (C, cleaved yes); made in house; host or cells: HEK293F cells
T1 sequence (Q63424 1-729): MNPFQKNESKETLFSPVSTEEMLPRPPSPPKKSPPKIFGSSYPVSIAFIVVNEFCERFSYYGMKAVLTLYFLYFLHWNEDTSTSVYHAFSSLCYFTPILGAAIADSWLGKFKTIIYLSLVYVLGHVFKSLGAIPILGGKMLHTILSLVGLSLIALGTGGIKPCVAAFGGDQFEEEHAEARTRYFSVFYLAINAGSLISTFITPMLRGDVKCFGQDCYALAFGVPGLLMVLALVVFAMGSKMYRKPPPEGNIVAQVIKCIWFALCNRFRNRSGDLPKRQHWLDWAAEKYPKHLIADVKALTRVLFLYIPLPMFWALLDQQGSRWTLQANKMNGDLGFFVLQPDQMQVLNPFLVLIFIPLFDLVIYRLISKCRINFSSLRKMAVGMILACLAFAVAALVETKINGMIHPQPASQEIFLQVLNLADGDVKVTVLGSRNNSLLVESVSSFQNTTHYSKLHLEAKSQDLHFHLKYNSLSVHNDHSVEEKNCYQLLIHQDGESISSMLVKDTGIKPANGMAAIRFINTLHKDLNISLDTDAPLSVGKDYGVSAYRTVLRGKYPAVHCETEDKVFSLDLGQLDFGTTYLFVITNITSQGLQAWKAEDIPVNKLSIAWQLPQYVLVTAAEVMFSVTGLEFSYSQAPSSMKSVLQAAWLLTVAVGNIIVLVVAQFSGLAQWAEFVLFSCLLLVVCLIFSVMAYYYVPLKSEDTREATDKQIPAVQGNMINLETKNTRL
Briefly: Inhibition of uptake of radioactive di-alanine peptide into PepT2 proteoliposomes (IC50). It is filed as biochemical. Here is the method:
(§1) The lipids were dried to obtain a thin film using a rotary evaporator and washed twice in pentane before being resuspended at 10 mg mL^–1 in lipid buffer (50 mM potassium phosphate at pH 7.5). These lipid vesicles were frozen and thawed twice in liquid nitrogen and stored at −80 °C until required. For reconstitution, the lipids were thawed and then extruded first through a 0.8-μm filter and then through a 0.4-μm filter. Purified PepT2 at 0.3 μg μl^−1 was added to the lipids at a final lipid:protein ratio of 100:1 (w/w) for transport assays or 10:1 for solid support membrane (SSM) experiments and incubated for 1 h at room temperature, then for a further 1 h on ice. After this time, biobeads were added in batches. After 24 h biobeads were removed and the proteoliposomes harvested by centrifugation at 120,000 g for 40 min before resuspension in lipid buffer at a final protein concentration of 0.25 μg μl^−1, or 0.5 ug ul^−1 for liposomes for SSM. They were subjected to three rounds of freeze–thawing in liquid nitrogen before storage at −80 °C.
The reaction was initiated through the addition of valinomycin at 1 μM and stopped after 4 minutes by rapidly filtering onto 0.22-μm filters, which were then washed with 2 × 2 mL cold water. […] Experiments were performed three times (from at least 2 independent purifications and reconstitutions) to generate an overall mean and s.d.

In assay [2] the target is T1, rat PepT2. Briefly: Counterflow transport assay in PepT2 proteoliposomes. Conditions: for Counterflow transport, individual experiments (source data Fig 1d): relative to di-alanine; for Counterflow activity relative to L-Ala-L-Ala: Supplementary Table 2, RnPepT2 reconstituted liposome assay; for Ability to drive transport in counterflow: result in words, cloxacillin also at 10 mM. It counts as biochemical. Here is the method: as §1, with “PepT2 was reconstituted into liposomes consisting of a 3:1 POPE:POPG (Avanti polar lipids, USA, Cat. No. 850757 C, 840457 C) using biobeads. The lipids” for “The lipids”
Proteoliposomes were harvested through centrifugation before resuspending in counterflow buffer (50 mM potassium phosphate pH 7.5) containing 0.5 mM peptide or antibiotic (unless stated otherwise) or water as the negative control and were subjected to four rounds of freeze thawing in liquid nitrogen to fully distribute the buffer and ligand. The proteoliposomes were then extruded through a 0.2-μm filter. Transport was initiated by diluting into counterflow buffer containing 40 μM di-alanine with trace amounts of ^3H di-alanine, transport was allowed to proceed for 5 minutes before termination of the experiments through rapidly filtering onto 0.22-μm filters, which were then washed with 2 × 2 mL cold water. The amount of peptide transported inside the liposomes was calculated as above. Experiments were performed a minimal of five times and plotted as the level of transport for each ligand compared to the level observed with di-alanine as a percentage.

In assay [3] the target is T1, rat PepT2. Briefly: SSM-based electrophysiology (SURFE2R) of reconstituted PepT2. It counts as biochemical. Conditions: result in words. As for the experimental part: as §1, with “PepT2 was reconstituted into liposomes consisting of a 3:1 POPE:POPG (Avanti polar lipids, USA, Cat. No. 850757 C, 840457 C) using biobeads. The lipids” for “The lipids”
SSM-based assays were performed on a SURFE^2R N1 (Nanion Technologies) with sensors prepared as follows. 50 μl of 0.5 mM 1-octadecanethiol solution in isopropanol was added to the sensor and left overnight. The sensor was rinsed three times with isopropanol and then three times with water before being allowed to dry. 1.5 ul of 7.5 μg/μl 1,2-diphytanoyl-sn-glycero-3-phosphocholin in n-decane was applied to the surface of the sensor. Immediately after this 50 ul of non-activating buffer were added and left for an hour at room temperature. Proteoliposomes were diluted (5 ul liposomes with 36 ul buffer) in non-activating buffer (20 mM HEPES, 140 mM KCl, 2 mM MgCl2 pH 7.2) and sonicated four times for 10 s in a water bath before application (2–6 μl) to the prepared 3 mm sensors. Sensors were incubated at room temperature and centrifugation at 2800 g for 30 min at 10 °C and incubated at room temperature for at least an hour prior to assaying. The activating buffer was made with the desired concentration of ligand (alanine, di-alanine, or the antibiotics of interest) in non-activating buffer. A single solution exchange workflow was used with activating buffer applied at 1 s and removed at 2 s. This technique was used to distinguish between antibiotics substrate (gives a current, similar to a known peptide control – di-alanine) and inhibitor (no current observed similar to a known non substrate, alanine) and raw traces from 1–3 s are shown in Fig. 1.

Assay [4] deals with PepT2. Conditions: cell-based assays, inhibition of a radioactive reporter peptide; cited from earlier work.
In assay [5] the target is T2, PepT2 (SLC15A2) from Rattus norvegicus (Rattus norvegicus, UniProt Q63424).
T2 construct: Proton-coupled peptide transporter PepT2 (SLC15A2), Rattus norvegicus; The extracellular domain is in the protein but was not built in the deposited models; also called rat PepT2; ratPepT2; source: HEK293F, transfected, purified (nickel NTA, TEV cleavage, SEC) in DDM:CHS; also reconstituted into POPE:POPG liposomes; not shown: GFP, C-terminal, cleaved; His tag, C-terminal, cleaved

The mark [6] stands for this setting: rat PepT2 in liposomes, inhibition of 3H di-alanine uptake, 4 minutes, mean of n = 3 (SD), read-out: IC50.
Where [7] appears, read: single independent experiments, 3 per ligand, read-out: IC50, individual experiments (source data Fig 1c).
The mark [8] stands for this setting: 5 min, read-out: Counterflow activity relative to L-Ala-L-Ala.
Where [9] appears, read: IC50, rat PepT2 in liposomes, inhibition of 3H di-alanine uptake, 4 minutes, mean of n = 3 (SD).
[10] abbreviates: Supplementary Table 2, RnPepT2 reconstituted liposome assay, read-out: IC50 (µM) relative to L-Ala-L-Ala.
The mark [11] stands for this setting: 0.5 mM ligand, listed as Ala-Ala.

Results on 12 compounds are retold here after article PMC11464717, “Structural basis for antibiotic transport and inhibition in PepT2” (Nature Communications, 2024).

By IC50 is commonly meant the point on the concentration scale where inhibition reaches its midpoint. In general, Ki refers to the dissociation constant of the complex between target and ligand, obtained from inhibition or displacement.

Where “and” joins values, the source holds several entries; their conditions need not be identical. Equal entries are not always repeated. Where two headings read alike, the source gives them in different places. Where a SMILES comes first, the peptide text is derived from it.

As for `CC1(C)S[C@@H]2[C@H](NC(=O)[C@H](N)c3ccc(O)cc3)C(=O)N2[C@H]1C(=O)O` [Amoxicillin, amoxicillin], the half-maximal inhibitory concentration (IC50) in assay [1] (setting [6]) was 270 µM; in assay [1] (setting [7]), 225 µM and 301 µM and 280 µM. Besides, the “Counterflow transport, individual experiments (source data Fig 1d)” value (shortened to “Counterflow transport … (source data Fig 1d)”) in assay [2] (0.5 mM ligand, listed as Amoxacillin) is 29 and 39.2 and 34.1 and 35 and 28. Also, the Counterflow activity relative to L-Ala-L-Ala in assay [2] (setting [8]) was determined as 33%. Further, the “Capacitance change / current on solid support membrane” value (“Capacitance change / current” below) in assay [3] is “significant capacitance change”. Also, the Ki in assay [4] was 200 to 430 µM.

Regarding `CC1(C)S[C@@H]2[C@H](NC(=O)[C@H](N)c3ccccc3)C(=O)N2[C@H]1C(=O)O` [Ampicillin, ampicillin], in assay [1] (setting [9]), the IC50 was determined as 750 µM.

`CC1(C)S[C@@H]2[C@H](NC(=O)Cc3ccccc3)C(=O)N2[C@H]1C(=O)O` [Benzylpenicillin, benzylpenicillin]: in assay [2] (10 mM ligand), the “Counterflow transport, individual experiments (source data Fig 5a)” value (“Counterflow transport … (source data Fig 5a)” for short) is 7.2 and 6.8 and 6.2 and 4.1. The Counterflow activity relative to L-Ala-L-Ala in assay [2] (setting [8]) is 0%. Also, in assay [2], the “Ability to drive transport in counterflow” value (shortened to “Ability to drive transport”) was “cannot transport”.

For the compound `N[C@@H](C(=O)N[C@@H]1C(=O)N2C(C(=O)O)=C(Cl)CS[C@H]12)c1ccccc1` [Cefaclor, cefaclor], the 50% inhibitory concentration (IC50) in assay [1] (setting [7]) is 55 µM and 58 µM and 42 µM. Moreover, the “Counterflow transport … (source data Fig 5a)” value in assay [2] (0.5 mM ligand) was 82 and 72.2 and 77.1 and 71.3. Also, the Counterflow activity relative to L-Ala-L-Ala in assay [2] (setting [8]) came out at 76%. Further, in assay [2] (uptake of 3H di-alanine, 5 minutes, level relative to di-alanine, 0.5 mM ligand unless stated otherwise), the “Counterflow activity relative to di-alanine” value was 76%.

Consider `CC1=C(C(=O)O)N2C(=O)[C@@H](NC(=O)[C@H](N)c3ccc(O)cc3)[C@H]2SC1` [Cefadroxil, cefadroxil], for which the IC50 in assay [1] (setting [10]) is 20 µM; in assay [1] (setting [6]) it was 19 µM; in assay [1] (setting [7]), 22 µM and 17 µM. In addition, the “Counterflow transport … (source data Fig 1d)” value in assay [2] (0.5 mM ligand) is 117 and 120.6 and 118 and 125 and 128. Moreover, the Counterflow activity relative to L-Ala-L-Ala in assay [2] (setting [8]) was 120%. The “Ability to drive transport” value in assay [2] was “more effectively than di-alanine”. Besides, the “Capacitance change / current” value in assay [3] is listed as “significant capacitance change”. The inhibitory constant (Ki) in assay [4] was 3 µM.

With `Nc1nc(/C(=C/CC(=O)O)C(=O)N[C@@H]2C(=O)N3C(C(=O)O)=CCS[C@H]23)cs1` [Ceftibuten, ceftibuten], the IC50 in assay [1] (setting [10]) was determined as 1200 µM; in assay [1] (rat PepT2 in liposomes, inhibition of 3H di-alanine uptake, read-out: IC50), 1000 µM. Besides, in assay [2] (4 mM ligand), the “Counterflow transport … (source data Fig 5a)” value is 6.7 and 5.6 and 6.9. In addition, in assay [2] (setting [8]), the Counterflow activity relative to L-Ala-L-Ala was found to be 0%. For the same compound, the “Ability to drive transport” value in assay [2] is given as “cannot transport”.

For the compound `Cc1onc(-c2ccccc2Cl)c1C(=O)N[C@@H]1C(=O)N2[C@@H]1SC(C)(C)[C@@H]2C(=O)O` [Cloxacillin, cloxacillin], the concentration for half-maximal inhibition (IC50) in assay [1] (setting [9]) was 203 µM; in assay [1] (setting [7]), 180 µM and 220 µM and 210 µM. The “Counterflow transport … (source data Fig 1d)” value in assay [2] (0.5 mM ligand) was 4.1 and 3.2 and 4 and 1 and 3.1; in assay [2] (10 mM ligand), 2.7 and 1.2 and 5.4 and 3.4 and 2.5. For the same compound, in assay [2] (setting [8]), the Counterflow activity relative to L-Ala-L-Ala stood at 0%. The “Ability to drive transport” value in assay [2] is “unable to drive transport”. Also, the Ki in assay [4] is 1000 µM.

As for `N[C@@H](CCCCNC(=O)OCc1ccc([N+](=O)[O-])cc1)C(=O)N1CCC[C@H]1C(=O)O` [LZNP, Lys [Z(NO2)]-Proline], the “Counterflow transport … (source data Fig 1d)” value in assay [2] (0.5 mM ligand) was 3.8 and 4.1 and 6.1 and 5.4.

Consider `CO[C@@]1(NC(=O)C(C(=O)O)c2ccc(O)cc2)C(=O)N2C(C(=O)O)=C(CSc3nnnn3C)CO[C@@H]21` (some centres unmarked) [Moxalactam, moxalactam], for which the half-inhibitory concentration (IC50) in assay [1] (setting [6]) stood at 500 µM. For the same compound, in assay [2] (1 mM ligand), the “Counterflow transport … (source data Fig 5a)” value is 5.6 and 5.3 and 6.5 and 4.2. Also, the Counterflow activity relative to L-Ala-L-Ala in assay [2] (setting [8]) worked out at 0%. For the same compound, in assay [2], the “Ability to drive transport” value is recorded as “cannot transport”.

For the compound `C[C@H](N)C(=O)O` [alanine], in assay [3], the “Capacitance change / current” value is listed as “non-transported”.

As to `C[C@H](N)C(=O)N[C@@H](C)C(=O)O` [di-alanine, L-Ala-L-Ala] (H-Ala-Ala-OH), the half-maximal inhibitory concentration (IC50) in assay [1] (setting [6]) was 32 µM; in assay [1] (single independent experiments, 3 per ligand, listed as Ala-Ala, read-out: IC50, individual experiments (source data Fig 1c)), 34.6 µM and 31.2 µM and 29.4 µM. Further, the “Counterflow transport … (source data Fig 1d)” value in assay [2] (setting [11]) was 100 and 99.8 and 108.7 and 97.1 and 95.2. Besides, in assay [2] (setting [11]), the “Counterflow transport … (source data Fig 5a)” value is 97.2 and 101.1 and 99.1 and 100.3. The “Counterflow activity relative to L-Ala-L-Ala” value in assay [2] was found to be 100. Moreover, the “Capacitance change / current” value in assay [3] was “significant capacitance change”.

In the case of di-alanine peptide, the IC50 of inhibition of the uptake of radioactive (3H) di-alanine into PepT2 proteoliposomes in assay [5] turned out to be 32 µM.
